The numbers were not newly measured in patent publication US9981895B1 (Parnative, Inc., priority 2015, dated 2018), which cites them from elsewhere.

For series [1] the following is noted: TBARS assay; CPC-purified compounds; Abbott et al. 2010.
A further series relates to RAW 264.7 cell line. The note with it: MTT assay, Abbott et al. 2010.
Another series concerns HeLa cell line. Particulars: MTT assay, Abbott et al. 2010.

As to `CC(C)/C=C/c1c(O)cc(/C=C/c2ccc(O)c(O)c2)cc1O` [arachidin-1], the “dose at which oxidation was inhibited” value in series [1] is 7 µM. Further, the “concentration at which cytotoxicity was demonstrated” value in the series with RAW 264.7 cell line and with HeLa cell line was 27 µM throughout.

Turning to “5-RE)-2-(4-hydroxyphenyl) ethenyl]-2-[(1E)-2-phenylprop-1-en-1-yl]benzene-1,3-diol [arachidin-3]”, the “dose at which oxidation was inhibited” value in series [1] is 14 µM. Besides, the “concentration at which cytotoxicity was demonstrated” value with RAW 264.7 cell line and in the series on HeLa cell line was 55 µM in each case.
